According to PMC10675445, “Enolase Inhibitors as Early Lead Therapeutics against Trypanosoma brucei” (Pathogens, 2023):
Read-outs that look alike come from different tables or passages of the source.

Key:
T. brucei ENO (TbENO) = T. brucei ENO (TbENO) (Trypanosoma brucei brucei, UniProt Q38BV6); assay: Recombinant TbENO coupled enzyme assay; type: biochemical
Procedure: Recombinant ENO and ENO Assays—Recombinant TbENO was expressed and purified using an approach modified from the purification of another trypanosome glycolytic enzyme. Briefly, the full-length open reading frame was cloned from Trypanosoma brucei brucei (a 427 strain) genomic DNA into the bacterial expression vector pQE-30 (Qiagen, MD, USA). This plasmid was transformed into M15pREP cells and protein expression induced with 0.25 mM isopropyl-b-d-1-thiogalactopyranoside (IPTG) overnight at 37 °C. Protein was purified on Ni-NTA agarose (Qiagen) as described.
ENO assays were performed in triplicate using a coupled reaction to measure enzyme activity. In short, enzyme (~50 nM) in assay buffer (100 mM HEPES, pH 8.0, 3.3 mM MgSO4, 120 mM KCl, 1.75 mM ADP, 1 U of pyruvate kinase/lactate dehydrogenase, and 0.4 mM NADH) was added to black 96-well plates. Reactions were initiated by the addition of substrate (3.75 mM 2-PG) and the rate of reduction in fluorescence emission at A460 was measured after excitation at A360 to monitor NAD^+ production. Assays were scored on a Biotek Synergy H1 microplate reader and kinetic analyses were performed with Prism 9.0 (GraphPad Software, San Diego, CA, USA) using the Michaelis–Menten model. To assess the impact of different pH on enzyme activity, the HEPES […] in the standard buffer was replaced with Good’s buffers 2-morpholinoethanesulfonic acid (MES, pH 6.5), HEPES (pH 7.0 to pH 8.5), or sodium borate (pH 9.0). For assays involving inhibitors, compounds (in DMSO) were incubated with the enzyme in assay buffer (pH 8.0) for 15 min prior to initiation of the reaction. All assays were performed in triplicate with vehicle control (DMSO) included.

T. brucei BSF parasites = assay: BSF viability assay (CellTiter Blue); type: cell-based, Trypanosoma brucei brucei
Procedure: (§1) Trypanosome growth, viability assays, and Western blotting—T. brucei brucei 90-13 BSF parasites were cultured in HMI-9 medium supplemented with 10% heat-inactivated FBS and 10% Serum Plus (Sigma-Aldrich, St. Louis, MO, USA) at 37 °C in 5% CO2, while T. brucei brucei PF 29-13 were cultured in SDM-79 supplemented with 10% heat-inactivated FBS [16]. For BSF viability assays, parasites (1 × 10^5/mL) were seeded into 384-well black polystyrene plates in the presence of a compound or equivalently diluted carrier. CellTiter Blue reagent (Promega, Madison, WI, USA) was added after two days of culture, the plates incubated an additional 1 h, and fluorescence emission at A585 measured after excitation at A546. For PF viability assays, 1 × 10^6 parasites in standard medium, or 5 × 10^6 parasites in glucose-free medium, were introduced into black 96-well plates in standard culture medium in the presence of a compound or carrier, with CellTiter Blue reagent added after 48 h of culture. Plates were incubated for 1 h and fluorescence emission scored as described for BSF. Fluorescence values were used to calculate percent cell growth inhibition (based on controls) for each concentration of compound tested. Averages of the triplicates were calculated and fit to dose-response curves for the determination of EC50 values, using Prism 9.0 (GraphPad Software, San Diego, CA, USA).

HsENO2 = system: HsENO2; design: method as in PMID 33230295; conditions: cited from earlier work; for IC50: included for comparative purposes, source not given
ENO1-deficient tumors = system: ENO1-deficient tumors; design: method as in PMID 33230295; conditions: rodent model; cited from earlier work
[1] = design: method as in PMID 33230295; conditions: mammalian animal models, including non-human primates; cited from earlier work
T. brucei PF parasites = assay: PF viability assay (CellTiter Blue); type: cell-based; conditions: Trypanosoma brucei, 48 h
Procedure: as §1

BSF parasites [2] = assay: Trypanosome ROS assay (flow cytometry); type: cell-based, Trypanosoma brucei; conditions: 30 min, POMHEX 50 or 100 µM, H2O2 125 µM
Procedure: BSF parasites (5 × 10^6 cells) were pelleted (800 × g, 10 min) then resuspended in PBS supplemented with 0.1% glucose (PBSg). Samples were treated with either ROS stain (Total Reactive Oxygen Species (ROS) Assay Kit 520 nm, Invitrogen) or DMSO and then incubated at 37 °C in 5% CO2 for 60 min. Samples were then treated with 125 μM H2O2, 50 μM POMHEX, 100 μM POMHEX, or equal volume DMSO, incubated for 30 min, and analyzed on a CytoFLEX flow cytometer (Beckman Coulter). Events (10,000) were recorded and analyzed using FCSexpress software. Median fluorescence intensity (MFI) was calculated, and Welch’s t-tests were performed (ns: not statistically significant, * p < 0.05, ** p < 0.01, *** p < 0.001). Each experiment was performed with biological triplicates in technical triplicates.

BSF parasites [3] = assay: Propidium iodide exclusion viability (flow cytometry); type: cell-based, Trypanosoma brucei; conditions: 30 min
Procedure: To monitor apoptotic-like responses, 5 × 10^6 parasites were collected, resuspended in fresh media containing 125 μM H2O2, 5 μM POMHEX, 50 μM POMHEX, 100 μM POMHEX, or equal volume of DMSO, and incubated at 37 °C in 5% CO2 for 30 min. Cells were washed once in PBS, resuspended in binding buffer (10 mM HEPES/NaOH, pH 7.4, 140 mM NaCl, 2.5 mM CaCl2) with propidium iodide (Enzo Life Sciences) and incubated for 15 min, followed by cytometry. Each experiment was performed with technical triplicates of biological triplicates. Median fluorescence intensity (MFI) was calculated, and Welch’s t-tests were performed (ns: not statistically significant, * p < 0.05, ** p < 0.01, *** p < 0.001).

T. brucei aldolase = assay: Aldolase western blot of BSF lysates; type: cell-based, Trypanosoma brucei; conditions: POMHEX 6 µM, 2.5 h
Source text: (§2) The following supporting information can be downloaded at: https://www.mdpi.com/article/10.3390/pathogens12111290/s1, Figure S1: Multiple sequence alignment of TbENO, HsENO2, and NfENO. Amino acid sequences of TbENO (Tb927.10.2890), HsENO2 (ENOG, P09104), and NfENO (NfTY_054390) were aligned using Clustal Omega (EMBL-EBI). Similar amino acids are indicated with (:) and absolute conservation of residues by (*). Figure S2: BSF morphology rapidly changes upon POMHEX treatment. For imaging, BSF (427 strain parasites) parasites bearing the transgene pXS6 AldoPTSeYFP (left) or PF pXS2 AldoPTSeYFP (PF 29-13) (right) for constitutive glycosomal expression of eYFP were cultured for 2.5 hr in DMSO vehicle or POMHEX (at 6 µM, a concentration equivalent to 10-fold the EC50 value). Cells were then washed, fixed (4% paraformaldehyde), and imaged on a on Leica 8 DMi8 microscope. Scale bar = 10 µm. Figure S3: The levels of the glycosome-resident protein aldolase change in response to POMHEX treatment. […] Western blots were visualized on a Analytik Jena UVP ChemStudio imager with Visual works imaging software and bands were quantitated using ImageJ. Percent change in aldolase amount was scored after normalization to loading by quantification of a prominent Coomassie-stained band (likely VSG). […] Cell viability was scored by propidium iodide exclusion, followed by analysis of 10,000 cells in the PC5.5 channel.

[4] = system: BSF parasites (BSF pXS6-eYFP-PTS1); assay: Imaging of BSF cell morphology; type: cell-based, Trypanosoma brucei; conditions: 6 µM, 2.5 h
Source text: as §2

PF parasites (PF 29-13) = assay: Imaging of PF cellular and glycosomal morphology; type: cell-based, Trypanosoma brucei; conditions: 6 µM, 2.5 h
Source text: as §2

[5] = recombinant TbENO ~50 nM, pH 8.0, 15 min preincubation, 3.75 mM 2-PG, read-out: TbENO IC50
[6] = Trypanosoma brucei, 48 h, BSF, two days of culture, read-out: T. brucei BSF EC50
[7] = Trypanosoma brucei, 48 h, read-out: T. brucei BSF EC50, BSF, two days of culture

Sequence of T. brucei ENO (TbENO) (Q38BV6 entry or part of it): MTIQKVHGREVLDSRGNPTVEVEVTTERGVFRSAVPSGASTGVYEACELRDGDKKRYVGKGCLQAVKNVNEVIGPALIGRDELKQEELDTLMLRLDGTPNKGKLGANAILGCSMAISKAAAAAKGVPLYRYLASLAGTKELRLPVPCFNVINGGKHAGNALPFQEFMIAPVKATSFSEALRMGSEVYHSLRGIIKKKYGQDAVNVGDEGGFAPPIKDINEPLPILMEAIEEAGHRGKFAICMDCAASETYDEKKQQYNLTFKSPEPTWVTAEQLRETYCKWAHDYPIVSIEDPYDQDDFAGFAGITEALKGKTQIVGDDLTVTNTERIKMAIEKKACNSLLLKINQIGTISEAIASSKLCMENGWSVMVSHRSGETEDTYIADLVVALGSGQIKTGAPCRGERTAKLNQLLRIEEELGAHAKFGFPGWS

Row | SMILES | IC50 (T. brucei ENO (TbENO); [5]) [µM] | EC50 (T. brucei BSF parasites; [6]) [µM] | IC50 (HsENO2) [µM] | IC50 (T. brucei ENO (TbENO)) [µM] | EC50 (T. brucei BSF parasites; [7]) [µM] | also measured
1 | O=C1C(P(=O)(O)O)CCCCN1OCc1ccccc1 (stereo not drawn) [Benzyl-HEPTA] | > 10 | > 10 | > 10 | – | – | –
2 | O=C1C(P(=O)(O)O)CCN1OCc1ccccc1 (stereo not drawn) [Benzyl-deoxy-SF2312] | > 10 | > 10 | > 10 | – | – | activity against TbENO at 10 µM (T. brucei ENO (TbENO); at 10 µM): not active
3 | O=C1C(P(=O)(O)O)CCCN1OCc1ccccc1 (stereo not drawn) [BenzylHEX] | > 10 | > 10 | > 10 | – | – | activity against ENO2 (in words) (HsENO2): not active
4 | O=C1C(P(=O)(O)O)CCN1O (stereo not drawn) [Deoxy-SF2312, (1-hydroxy-2-oxopyrrolidin-3-yl) phosphonic acid] | – | – | 0.1 ± 0.04 | 0.6 ± 0.23 | > 10 | –
5 | O=C1C(P(=O)(O)O)CCCCN1O (stereo not drawn) [HEPTA, (1-hydroxy-2-oxoazepan-3-yl) phosphonic acid] | – | – | 5.8 ± 0.88 | > 10 | > 10 | activity against TbENO (in words) (T. brucei ENO (TbENO)): not active
6 | O=C1C(P(=O)(O)O)CCCN1O (stereo not drawn) [HEX, (1-hydroxy-2-oxopiperidin-3-yl) phosphonic acid] | – | – | 0.36 ± 0.04 | 2.1 ± 1.1 | 10 ± 1 | EC50 (T. brucei BSF parasites; Trypanosoma brucei, read-out: T. brucei BSF EC50, HEX with formaldehyde, with 2 molar equivalent formaldehyde): 10 ± 1.4 µM; EC50 (T. brucei BSF parasites; read-out: T. brucei BSF EC50, BSF, two days of culture): > 10 µM; efficacy against ENO1-deficient tumors (ENO1-deficient tumors): curative; tolerability [1]: extremely well-tolerated
7 | CC(C)(C)C(=O)OCOP(=O)(OCOC(=O)C(C)(C)C)C1CCCN(O)C1=O (stereo not drawn) [POMHEX] | 2.8 ± 0.64 | 0.61 ± 0.08 | > 10 | – | – | EC50 (T. brucei PF parasites; PF parasites cultured in glucose-free medium, read-out: PF EC50, glucose-free medium): 5 ± 0.14 µM; EC50 (T. brucei PF parasites; PF parasites cultured in standard (5 mM) glucose, read-out: PF EC50, standard glucose): 0.81 ± 0.07 µM; ROS levels compared to untreated parasites (BSF parasites [2]): significant reduction in ROS levels; cell death by PI exclusion, 50 µM (BSF parasites [3]; 50 µM): did not lead to increased cell death; cell death by PI exclusion, higher concentration (BSF parasites [3]; 100 µM): increased cell death; decrease of aldolase levels vs vehicle-treated cells (T. brucei aldolase): 28%; range of aldolase reduction in three other replicates (T. brucei aldolase): 28-55%; BSF cell morphology [4]: rapid change to overall cell shape; PF cellular and glycosomal morphology (PF parasites (PF 29-13)): remained largely unchanged
8 | CC(C)(C)C(=O)OCOP(=O)(OCOC(=O)C(C)(C)C)C1CC(O)N(O)C1=O (stereo not drawn) [POMSF] | – | – | – | – | – | EC50 (T. brucei BSF parasites; BSF, two days of culture, read-out: T. brucei BSF EC50): 0.45 ± 0.1 µM
9 | OO [hydrogen peroxide, reference compound] | – | – | – | – | – | ROS levels compared to untreated parasites (BSF parasites [2]): increase in reactive species
